These results are taken from ChEMBL document CHEMBL2390873, “Rational design, synthesis and QSAR study of vasorelaxant active 3-pyridinecarbonitriles incorporating 1H-benzimidazol-2-yl function” (Eur J Med Chem, 2013).

In general, IC50 refers to the midpoint of a concentration-inhibition curve.

The test system of the assay is Aorta. Briefly: Vasorelaxant activity in Wister rat isolated thoracic aortic rings assessed as reduction of norepinephrine hydrochloride-induced contraction. Type of assay: functional, tissue-based.
Take `COc1nc(-c2nc3ccccc3n2C)cc(-c2ccccc2)c1C#N`: the IC50 worked out at 300 µM.

Turning to `CCOc1nc(-c2nc3ccccc3n2C)cc(-c2ccccc2)c1C#N`, the half-maximal inhibitory concentration (IC50) was 364 µM. The figure for `COc1nc(-c2nc3ccccc3[nH]2)cc(-c2ccc(Cl)cc2)c1C#N` is 286 µM; for `COc1nc(-c2nc3ccccc3n2C)cc(-c2ccc(Cl)cc2)c1C#N` it is 145 µM.

`CCOc1nc(-c2nc3ccccc3n2C)cc(-c2ccc(Cl)cc2)c1C#N`: the IC50 was found to be 293 µM. The figure for `COc1nc(-c2nc3ccccc3n2C)cc(-c2ccc(Cl)cc2Cl)c1C#N` is 214 µM; for `CCOc1nc(-c2nc3ccccc3n2C)cc(-c2ccc(Cl)cc2Cl)c1C#N` it is 305 µM; for `COc1nc(-c2nc3ccccc3n2C)cc(-c2ccc(F)cc2)c1C#N` it is 343 µM. Take `CCOc1nc(-c2nc3ccccc3n2C)cc(-c2ccc(F)cc2)c1C#N`: the IC50 stood at 362 µM. On to `COc1nc(-c2nc3ccccc3n2C)cc(-c2ccc(C)cc2)c1C#N`, for which the IC50 amounted to 295 µM.

As to `CCOc1nc(-c2nc3ccccc3n2C)cc(-c2ccc(C)cc2)c1C#N`, the IC50 is 400 µM. For `COc1ccc(-c2cc(-c3nc4ccccc4n3C)nc(OC)c2C#N)cc1`, the IC50 turned out to be 210 µM.

Regarding `CCOc1nc(-c2nc3ccccc3n2C)cc(-c2ccc(OC)cc2)c1C#N`, the IC50 turned out to be 436 µM. As for `COc1nc(-c2nc3ccccc3n2C)cc(-c2cccs2)c1C#N`, the IC50 came to 312 µM. In the case of `CCOc1nc(-c2nc3ccccc3n2C)cc(-c2cccs2)c1C#N`, the IC50 turned out to be 249 µM. The figure for `COc1nc(-c2nc3ccccc3[nH]2)cc(-c2ccc(C)o2)c1C#N` is 202 µM; for `COc1nc(-c2nc3ccccc3n2C)cc(-c2ccc(C)o2)c1C#N` it is 283 µM; for `CCOc1nc(-c2nc3ccccc3n2C)cc(-c2ccc(C)o2)c1C#N` it is 336 µM.
